The values that follow are results of earlier work, collected in US20240350583A1, “COMPOSITION FOR PREVENTING OR TREATING FIBROTIC DISEASES, COMPRISING HAPLN1” (Chung Ang University Industry Academic Cooperation …, priority 2021, published 2024).

Molecules are shown by their SMILES.

The subject of the data set is bleomycin-induced pulmonary fibrosis. The settings on record: group treated with prednisolone (Oku et al.); cited from earlier work.

Turning to `C[C@]12C=CC(=O)C=C1CC[C@@H]1[C@@H]2[C@@H](O)C[C@@]2(C)[C@H]1CC[C@]2(O)C(=O)CO` [prednisolone], the “level of TGFβ1, a measure of anti-fibrotic efficacy” value was “no decrease” and the “levels of inflammation-related biomarkers” value is on record as “decreased”.
